Results on 11 molecules are retold here after ChEMBL document CHEMBL3991601, “The target landscape of clinical kinase drugs” (Science, 2017).

Where a name gives a salt, the structure may show the parent alone. Active and inactive are the calls of the source.

The term Kd denotes the equilibrium constant for the complex coming apart.

The target in assay [1] is Epithelial discoidin domain-containing receptor 1 (Homo sapiens, UniProt Q08345).
In assay [2] the target is T1, Discoidin domain-containing receptor 2 (Homo sapiens, UniProt Q16832).
T1 sequence (Q16832 whole entry): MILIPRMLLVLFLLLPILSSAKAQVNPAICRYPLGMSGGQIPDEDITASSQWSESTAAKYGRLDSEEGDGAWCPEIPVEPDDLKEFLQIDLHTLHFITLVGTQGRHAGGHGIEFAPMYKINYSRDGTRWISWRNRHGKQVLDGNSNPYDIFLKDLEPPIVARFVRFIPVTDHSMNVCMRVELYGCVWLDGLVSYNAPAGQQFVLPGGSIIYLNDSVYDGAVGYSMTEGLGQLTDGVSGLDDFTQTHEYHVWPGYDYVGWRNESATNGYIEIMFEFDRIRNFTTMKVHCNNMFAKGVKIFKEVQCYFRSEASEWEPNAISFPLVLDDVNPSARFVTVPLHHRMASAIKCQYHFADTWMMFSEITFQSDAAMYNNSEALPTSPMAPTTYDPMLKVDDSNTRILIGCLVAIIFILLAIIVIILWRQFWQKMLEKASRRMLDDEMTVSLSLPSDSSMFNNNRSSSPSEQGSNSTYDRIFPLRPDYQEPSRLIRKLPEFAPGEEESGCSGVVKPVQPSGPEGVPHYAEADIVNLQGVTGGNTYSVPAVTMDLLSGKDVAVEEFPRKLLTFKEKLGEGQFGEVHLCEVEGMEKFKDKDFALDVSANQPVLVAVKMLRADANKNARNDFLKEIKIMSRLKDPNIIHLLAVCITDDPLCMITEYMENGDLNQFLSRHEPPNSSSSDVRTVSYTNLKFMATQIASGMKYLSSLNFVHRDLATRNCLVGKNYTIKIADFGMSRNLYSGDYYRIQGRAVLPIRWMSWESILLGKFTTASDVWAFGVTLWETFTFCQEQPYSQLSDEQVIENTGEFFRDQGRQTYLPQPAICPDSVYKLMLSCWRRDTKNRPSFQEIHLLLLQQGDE

Assay [3] has as its target T2, Probable ATP-dependent RNA helicase DDX6 (Homo sapiens, UniProt P26196).
T2 sequence (P26196 whole entry): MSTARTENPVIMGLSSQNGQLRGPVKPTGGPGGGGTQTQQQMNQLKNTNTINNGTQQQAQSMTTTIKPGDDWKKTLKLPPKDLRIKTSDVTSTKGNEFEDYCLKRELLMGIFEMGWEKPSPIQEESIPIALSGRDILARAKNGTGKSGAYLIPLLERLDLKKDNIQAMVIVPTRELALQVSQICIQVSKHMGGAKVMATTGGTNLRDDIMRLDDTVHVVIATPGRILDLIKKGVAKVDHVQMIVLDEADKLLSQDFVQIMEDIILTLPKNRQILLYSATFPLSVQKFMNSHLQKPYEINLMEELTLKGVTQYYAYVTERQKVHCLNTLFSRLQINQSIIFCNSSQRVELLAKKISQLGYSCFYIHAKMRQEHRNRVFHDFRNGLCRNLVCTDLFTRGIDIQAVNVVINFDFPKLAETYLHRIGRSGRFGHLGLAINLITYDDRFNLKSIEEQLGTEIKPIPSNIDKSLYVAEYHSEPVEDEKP

Assay [4] deals with Epidermal growth factor receptor (Homo sapiens, UniProt P00533).
Epidermal growth factor receptor, sequence (P00533 whole entry): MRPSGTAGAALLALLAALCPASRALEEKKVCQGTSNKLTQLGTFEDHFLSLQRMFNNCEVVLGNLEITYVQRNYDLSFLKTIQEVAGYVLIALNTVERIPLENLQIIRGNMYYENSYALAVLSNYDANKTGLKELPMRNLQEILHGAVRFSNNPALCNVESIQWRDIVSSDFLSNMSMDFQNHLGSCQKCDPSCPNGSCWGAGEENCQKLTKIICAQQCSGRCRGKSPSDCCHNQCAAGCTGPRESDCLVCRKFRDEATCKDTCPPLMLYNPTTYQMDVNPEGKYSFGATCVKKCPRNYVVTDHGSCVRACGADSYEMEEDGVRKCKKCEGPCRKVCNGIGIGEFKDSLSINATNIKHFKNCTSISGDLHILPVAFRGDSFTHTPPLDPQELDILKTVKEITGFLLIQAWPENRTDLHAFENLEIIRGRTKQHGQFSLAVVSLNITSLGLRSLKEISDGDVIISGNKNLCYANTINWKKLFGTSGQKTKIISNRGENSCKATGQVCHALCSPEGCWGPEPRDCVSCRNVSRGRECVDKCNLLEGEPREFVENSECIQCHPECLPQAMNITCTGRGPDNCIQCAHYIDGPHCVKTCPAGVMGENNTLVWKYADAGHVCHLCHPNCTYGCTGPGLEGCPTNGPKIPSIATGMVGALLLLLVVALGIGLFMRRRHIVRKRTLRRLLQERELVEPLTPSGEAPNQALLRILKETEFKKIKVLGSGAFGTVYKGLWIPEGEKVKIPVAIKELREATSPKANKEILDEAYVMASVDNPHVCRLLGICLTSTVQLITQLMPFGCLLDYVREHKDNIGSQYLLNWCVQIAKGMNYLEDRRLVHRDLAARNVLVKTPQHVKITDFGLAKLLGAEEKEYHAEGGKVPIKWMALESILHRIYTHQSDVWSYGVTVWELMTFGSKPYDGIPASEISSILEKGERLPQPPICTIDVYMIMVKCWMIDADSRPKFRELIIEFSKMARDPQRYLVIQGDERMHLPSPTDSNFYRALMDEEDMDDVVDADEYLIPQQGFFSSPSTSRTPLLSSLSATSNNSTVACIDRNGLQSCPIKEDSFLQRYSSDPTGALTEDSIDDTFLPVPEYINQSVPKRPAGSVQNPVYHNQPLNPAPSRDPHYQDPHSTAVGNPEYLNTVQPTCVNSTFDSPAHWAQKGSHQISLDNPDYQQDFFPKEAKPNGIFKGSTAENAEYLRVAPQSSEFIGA
The target in assay [5] is Myosin light chain kinase, smooth muscle (Homo sapiens, UniProt Q15746).
Myosin light chain kinase, smooth muscle, sequence (Q15746 whole entry): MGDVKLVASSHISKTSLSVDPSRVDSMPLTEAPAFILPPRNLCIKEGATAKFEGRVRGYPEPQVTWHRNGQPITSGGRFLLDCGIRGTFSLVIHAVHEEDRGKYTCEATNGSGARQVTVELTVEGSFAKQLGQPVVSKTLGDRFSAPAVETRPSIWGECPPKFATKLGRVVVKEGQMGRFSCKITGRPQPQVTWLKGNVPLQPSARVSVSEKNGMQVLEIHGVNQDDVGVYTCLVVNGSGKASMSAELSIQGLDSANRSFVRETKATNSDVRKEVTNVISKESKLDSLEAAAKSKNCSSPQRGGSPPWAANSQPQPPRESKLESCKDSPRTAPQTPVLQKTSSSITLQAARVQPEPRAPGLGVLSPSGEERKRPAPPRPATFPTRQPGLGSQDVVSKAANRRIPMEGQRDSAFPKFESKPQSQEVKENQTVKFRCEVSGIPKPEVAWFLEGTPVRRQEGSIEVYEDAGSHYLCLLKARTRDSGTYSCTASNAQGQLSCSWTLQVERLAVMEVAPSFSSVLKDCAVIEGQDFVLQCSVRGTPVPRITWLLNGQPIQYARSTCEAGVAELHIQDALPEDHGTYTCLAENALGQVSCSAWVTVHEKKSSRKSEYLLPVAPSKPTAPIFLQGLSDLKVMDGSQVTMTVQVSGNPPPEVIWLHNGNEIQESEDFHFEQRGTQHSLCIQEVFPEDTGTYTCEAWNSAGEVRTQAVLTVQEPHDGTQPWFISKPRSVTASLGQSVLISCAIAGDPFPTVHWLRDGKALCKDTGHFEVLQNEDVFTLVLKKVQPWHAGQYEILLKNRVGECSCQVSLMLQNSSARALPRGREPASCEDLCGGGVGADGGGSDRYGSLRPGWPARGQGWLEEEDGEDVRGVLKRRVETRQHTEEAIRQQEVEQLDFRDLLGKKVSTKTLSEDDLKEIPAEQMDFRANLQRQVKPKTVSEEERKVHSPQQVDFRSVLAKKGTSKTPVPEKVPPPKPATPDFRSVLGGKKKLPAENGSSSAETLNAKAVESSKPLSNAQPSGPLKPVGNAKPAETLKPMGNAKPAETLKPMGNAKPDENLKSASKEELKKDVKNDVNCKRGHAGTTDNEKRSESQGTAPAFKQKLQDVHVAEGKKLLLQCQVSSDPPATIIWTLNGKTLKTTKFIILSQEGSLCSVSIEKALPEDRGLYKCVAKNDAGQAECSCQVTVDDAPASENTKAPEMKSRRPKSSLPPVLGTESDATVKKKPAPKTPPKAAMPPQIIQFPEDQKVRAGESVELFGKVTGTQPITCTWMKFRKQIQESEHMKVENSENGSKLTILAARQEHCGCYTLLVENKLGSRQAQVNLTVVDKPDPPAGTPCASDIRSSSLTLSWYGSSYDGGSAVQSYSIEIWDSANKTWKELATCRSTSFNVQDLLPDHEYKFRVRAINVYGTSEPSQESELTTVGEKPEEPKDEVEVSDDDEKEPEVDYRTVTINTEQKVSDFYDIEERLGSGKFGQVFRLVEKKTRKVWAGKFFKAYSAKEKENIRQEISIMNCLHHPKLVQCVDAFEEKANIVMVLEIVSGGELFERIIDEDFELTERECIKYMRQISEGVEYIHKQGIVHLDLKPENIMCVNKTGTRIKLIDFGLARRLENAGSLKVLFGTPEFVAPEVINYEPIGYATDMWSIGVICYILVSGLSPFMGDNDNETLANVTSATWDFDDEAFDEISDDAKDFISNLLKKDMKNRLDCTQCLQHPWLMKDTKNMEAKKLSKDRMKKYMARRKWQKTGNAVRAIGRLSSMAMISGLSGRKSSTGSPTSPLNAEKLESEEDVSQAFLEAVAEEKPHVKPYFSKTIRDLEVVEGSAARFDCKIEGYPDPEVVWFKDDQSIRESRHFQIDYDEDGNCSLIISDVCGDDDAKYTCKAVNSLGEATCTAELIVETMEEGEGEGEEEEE
For assay [6], the target named is T3, STE20-related kinase adapter protein alpha (Homo sapiens, UniProt Q7RTN6).
T3 sequence (Q7RTN6 whole entry): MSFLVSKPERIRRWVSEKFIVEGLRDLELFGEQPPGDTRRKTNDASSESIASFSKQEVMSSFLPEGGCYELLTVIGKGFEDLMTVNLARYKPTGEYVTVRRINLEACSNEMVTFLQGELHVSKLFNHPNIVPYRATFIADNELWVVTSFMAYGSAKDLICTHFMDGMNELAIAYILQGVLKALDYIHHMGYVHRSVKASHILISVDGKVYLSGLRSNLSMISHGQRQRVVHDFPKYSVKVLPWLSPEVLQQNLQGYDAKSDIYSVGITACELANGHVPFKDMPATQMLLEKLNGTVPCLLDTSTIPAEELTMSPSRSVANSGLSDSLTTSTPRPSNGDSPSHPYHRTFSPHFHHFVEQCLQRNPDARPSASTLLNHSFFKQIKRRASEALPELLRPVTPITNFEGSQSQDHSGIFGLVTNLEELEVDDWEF

The target in assay [7] is T4, Serine/threonine-protein kinase TBK1 (Homo sapiens, UniProt Q9UHD2).
T4 sequence (Q9UHD2 whole entry): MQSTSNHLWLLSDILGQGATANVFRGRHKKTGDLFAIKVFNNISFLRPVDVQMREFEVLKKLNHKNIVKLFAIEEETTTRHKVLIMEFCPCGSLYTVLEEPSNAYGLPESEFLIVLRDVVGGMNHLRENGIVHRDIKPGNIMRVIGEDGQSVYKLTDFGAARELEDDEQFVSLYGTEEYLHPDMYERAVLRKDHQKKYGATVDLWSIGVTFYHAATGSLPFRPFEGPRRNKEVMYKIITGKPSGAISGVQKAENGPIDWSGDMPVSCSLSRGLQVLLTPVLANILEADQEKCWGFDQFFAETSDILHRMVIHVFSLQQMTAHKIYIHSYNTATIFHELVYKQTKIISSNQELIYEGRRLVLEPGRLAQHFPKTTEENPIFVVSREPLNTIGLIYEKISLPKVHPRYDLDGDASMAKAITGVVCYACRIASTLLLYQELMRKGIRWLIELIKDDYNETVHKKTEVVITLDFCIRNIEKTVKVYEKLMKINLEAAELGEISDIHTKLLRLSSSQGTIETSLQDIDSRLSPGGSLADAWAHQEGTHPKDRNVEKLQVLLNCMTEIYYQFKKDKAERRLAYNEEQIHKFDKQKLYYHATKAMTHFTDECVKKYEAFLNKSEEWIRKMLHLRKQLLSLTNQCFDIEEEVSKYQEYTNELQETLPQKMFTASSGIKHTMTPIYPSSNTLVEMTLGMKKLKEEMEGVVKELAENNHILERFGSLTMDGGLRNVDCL
Further: in the data inactive means no Kd found up to 30 µM.

Epithelial discoidin domain-containing receptor 1, sequence (Q08345 whole entry, the tested form may be a part): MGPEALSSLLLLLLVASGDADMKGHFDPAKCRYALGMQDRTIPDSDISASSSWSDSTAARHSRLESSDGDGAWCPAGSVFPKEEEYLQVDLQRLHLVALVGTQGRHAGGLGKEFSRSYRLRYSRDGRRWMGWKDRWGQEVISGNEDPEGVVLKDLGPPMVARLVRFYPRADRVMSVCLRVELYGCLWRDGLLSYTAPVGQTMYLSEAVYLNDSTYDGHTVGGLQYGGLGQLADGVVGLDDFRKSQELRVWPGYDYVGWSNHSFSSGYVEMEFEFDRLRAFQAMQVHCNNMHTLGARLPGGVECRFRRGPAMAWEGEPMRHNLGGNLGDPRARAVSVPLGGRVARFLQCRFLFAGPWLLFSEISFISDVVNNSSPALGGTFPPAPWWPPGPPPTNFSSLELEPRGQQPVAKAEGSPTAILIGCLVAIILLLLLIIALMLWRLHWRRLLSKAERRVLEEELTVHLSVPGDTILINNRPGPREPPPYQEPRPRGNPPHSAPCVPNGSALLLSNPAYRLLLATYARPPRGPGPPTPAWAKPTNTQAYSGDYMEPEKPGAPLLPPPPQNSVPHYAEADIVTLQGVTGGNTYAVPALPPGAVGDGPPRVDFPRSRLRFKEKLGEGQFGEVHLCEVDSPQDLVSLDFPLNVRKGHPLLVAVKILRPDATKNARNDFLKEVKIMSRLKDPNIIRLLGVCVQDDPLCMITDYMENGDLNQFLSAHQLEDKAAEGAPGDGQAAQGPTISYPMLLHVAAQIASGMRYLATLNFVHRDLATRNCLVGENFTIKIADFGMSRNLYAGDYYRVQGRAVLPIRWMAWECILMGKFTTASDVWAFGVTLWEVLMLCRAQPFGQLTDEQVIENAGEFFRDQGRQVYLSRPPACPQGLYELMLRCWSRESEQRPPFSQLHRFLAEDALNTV

Take `CC(=O)c1cnc2ccc(-c3cc(Cl)c(O)c(Cl)c3)nc2c1N[C@H]1CC[C@H](CN(C)C)CC1`: the equilibrium dissociation constant (Kd) in assay [1] is 0.515 µM (active); in assay [2], 2.28 µM (active); in assay [3] it was > 30 µM (inactive); in assay [4], > 30 µM (inactive); in assay [5], > 30 µM (inactive); in assay [6], > 30 µM (inactive).
Turning to `CCNC(=O)C#Cc1ccc2c(c1)NC(=O)/C2=C(\Nc1ccc(CN(C)C)cc1)c1ccccc1`, the equilibrium dissociation constant (Kd) in assay [1] is 0.469 µM (active); in assay [3], > 30 µM (inactive); in assay [4], > 30 µM (inactive); in assay [5] it was > 30 µM (inactive); in assay [6], > 30 µM (inactive); in assay [7], 0.759 µM (active).
As for `COCC(=O)NC/C=C/c1ccc2ncnc(Nc3ccc(Oc4ccc(C)nc4)c(C)c3)c2c1` [CP-724714], the Kd in assay [1], in assay [2], in assay [3], in assay [5], in assay [6] and in assay [7] was > 30 µM (inactive) each time.
On to `C#Cc1cccc(Nc2ncnc3cc(OC)c(OCCCCCCC(=O)NO)cc23)c1` [CUDC-101], for which the Kd in assay [1], in assay [2], in assay [3], in assay [5], in assay [6] and in assay [7] was > 30 µM (inactive) each time.
For the molecule `CCS(=O)(=O)N1CCN(c2ccc(Nc3ncc(C(N)=O)c(NC4CC4)n3)cc2)CC1` [Cerdulatinib Hydrochloride], the Kd in assay [1], in assay [2], in assay [3], in assay [4], in assay [5] and in assay [6] was > 30 µM (inactive) throughout.
Turning to `CC(C)(C)c1nc(-c2cccc(NS(=O)(=O)c3c(F)cccc3F)c2F)c(-c2ccnc(N)n2)s1` [DABRAFENIB], the Kd in assay [1], in assay [2], in assay [3], in assay [5], in assay [6] and in assay [7] was > 30 µM (inactive) throughout.
With `CCn1cc(-c2ccnc3[nH]c(-c4cccc(CN(C)C)c4)cc23)c(-c2ccc(NC(=O)N(C)C)cc2)n1` [GSK-1070916], the Kd in assay [1] is 0.008 µM (active); in assay [2] it was 1.27 µM (active); in assay [3], > 30 µM (inactive); in assay [5], > 30 µM (inactive); in assay [6], > 30 µM (inactive); in assay [7], > 30 µM (inactive).
As to `CNC(=O)c1nn(C)c2c1C(C)(C)Cc1cnc(Nc3ccc(N4CCN(C)CC4)cc3)nc1-2` [MILCICLIB], the Kd in assay [1] is 4.17 µM (active); in assay [2], 4.29 µM (active); in assay [3], > 30 µM (inactive); in assay [5], > 30 µM (inactive); in assay [6], > 30 µM (inactive); in assay [7], 2.09 µM (active).
As for `Cc1[nH]c(/C=C2\C(=O)Nc3ccccc32)c(C)c1CCC(=O)O` [ORANTINIB], the Kd in assay [1] is > 30 µM (inactive); in assay [2], > 30 µM (inactive); in assay [3], > 30 µM (inactive); in assay [5], > 30 µM (inactive); in assay [6] it was > 30 µM (inactive); in assay [7], 1.98 µM (active).
Take `CCOc1cc2ncc(C#N)c(Nc3ccc(F)c(Cl)c3)c2cc1NC(=O)/C=C/CN(C)C` [PELITINIB]: the Kd in assay [1], in assay [2], in assay [3], in assay [5], in assay [6] and in assay [7] was > 30 µM (inactive) each time.
On to `Cc1nc(Nc2n[nH]c3c2CN(C(=O)N[C@H](CN(C)C)c2ccccc2)C3(C)C)c2sccc2n1` [PF-03758309], for which the Kd in assay [1], in assay [2], in assay [3], in assay [4], in assay [5] and in assay [6] was > 30 µM (inactive) each time.
